Source: ChEMBL document CHEMBL4480460, “Concise Modular Synthesis of Thalassotalic Acids A-C” (J Nat Prod, 2019)

Molecular target: T1, Tyrosinase (Agaricus bisporus, UniProt O42713)
T1 sequence (O42713 whole entry): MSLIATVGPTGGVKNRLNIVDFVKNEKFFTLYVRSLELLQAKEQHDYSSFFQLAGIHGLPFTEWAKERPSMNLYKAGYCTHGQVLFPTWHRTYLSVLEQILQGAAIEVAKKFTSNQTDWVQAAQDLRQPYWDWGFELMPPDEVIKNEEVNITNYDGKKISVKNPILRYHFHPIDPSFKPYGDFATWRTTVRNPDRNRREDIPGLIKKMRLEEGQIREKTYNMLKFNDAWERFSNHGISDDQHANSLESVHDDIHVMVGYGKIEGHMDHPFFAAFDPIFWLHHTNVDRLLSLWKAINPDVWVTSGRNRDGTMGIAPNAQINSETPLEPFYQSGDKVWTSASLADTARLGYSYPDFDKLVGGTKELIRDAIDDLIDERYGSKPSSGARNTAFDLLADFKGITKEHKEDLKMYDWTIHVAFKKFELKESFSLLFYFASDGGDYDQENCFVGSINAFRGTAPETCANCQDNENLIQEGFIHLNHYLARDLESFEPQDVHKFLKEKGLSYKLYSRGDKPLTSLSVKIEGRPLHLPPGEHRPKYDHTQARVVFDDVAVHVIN
Description: Inhibition of mushroom tyrosinase using L-tyrosine as substrate measured after 30 mins

IC50 | SMILES
250 µM | CCCCCCCCC(=O)N/C(=C\c1ccc(O)cc1)C(=O)O
180 µM | O=C(O)/C(=C/c1ccc(O)cc1)NC(=O)c1ccccc1
65 µM | CC(=O)N/C(=C\c1ccc(O)cc1)C(=O)O
